From patent publication US20220273658A1, “SMALL MOLECULE LIVER X RECEPTOR MODULATORS AND USES THEREOF” (University of Houston System, priority 2019, published 2022)

Legend:
PDAC cells [1] = assay: cell viability with glutaminase inhibitor BPTES and 1E5; assay type: cell-based, human; settings: BPTES alone
Description: TCA cycle intermediates act as anaplerotic substrate for gluconeogenesis and lipogenesis. […] GOT2 converts glutamine-derived glutamate to alpha-KG. During this process oxaloacetate is converted to aspartate which is required to maintain redox homeostasis. Studies have shown that inhibition of GOT2 in PDAC promotes senescence.

[2] = pre-clinical testing; cited from earlier work
[3] = tested on: LXR target genes SREBF1c, ABCA1, and ABCG1; assay: expression of LXR target genes in pancreatic cancer cell lines; assay type: cell-based, human; settings: three pancreatic cancer cell lines
Description: To characterize the activity of the newly discovered ligands, the expression of LXR target genes SREBF1c, ABCA1, and ABCG1 was examined following treatment with vehicle, synthetic agonist GW3965, and Compounds 1E5 and 3A4. […] Basal expression of SREBF1c, the canonical LXR target gene involved in the regulation of glucose and lipid metabolism, was disrupted by the addition of novel LXR ligands, whereas their expression was induced following treatment with synthetic agonist GW3965 in all three pancreatic cancer cell lines tested, whereas the effects on ABCA1 and ABCG1 varied between the two novel ligands and across the cell lines.
(§1) To elucidate mechanisms of inverse agonism by the novel ligands, TR-FRET experiments were conducted to determine the effects of 1E5 and 3A4 on the recruitment of NR co-activators and co-repressors. […] In addition to their functions as inverse agonists, extended treatments with 1E5 and 3A4 also destabilized or decreased LXR proteins.

HPNE cells = assay: growth of non-transformed pancreatic epithelial cells (WST screen; FIG. 32D); assay type: cell-based, human; settings: FIG. 32(D)
Method: The initial identification and subsequent characterization of the two novel LXR ligands and their derivative compounds was carried out in screens in three human pancreatic cancer cell and one non-transformed human pancreatic epithelial cell line in three or more replicate experiments for each cell line using the WST tetrazolium salt reduction assays.
(§2) The synthesis and characterization of KD-01-39, a derivative of 3A4, have not been described previously.

KPC tumor cells = assay: growth of KPC tumor cells from mouse model of PDAC; assay type: cell-based
Description: The effects of the ligands and derivatives on the growth of PDAC cells were further validated by cell counting and clonogenic assays.

PDAC cells [4] = assay: treatment of PDAC cells with KD-01-39 (FIG. 32); assay type: cell-based, human; settings: all cancer lines tested
Description: as §2

[5] = tested on: LXR ligand-binding domain; assay: TR-FRET assay of co-activator and co-repressor peptide recruitment; assay type: biochemical
Method: as §1, §2

LXR-LBD = assay: differential scanning fluorimetry; assay type: binding
Description: as §2

[6] = tested on: myeloid-derived suppressor cells (MDSCs); settings: in vivo; cited from earlier work
MDSC and CD8+ T-cells = settings: in vivo; cited from earlier work
PDAC = PDAC patients; cited from earlier work

## O=C(Cc1ccccc1)Nc1nnc(CCSCCc2nnc(NC(=O)Cc3ccccc3)s2)s1 [BPTES, reference compound]
PDAC cells [1]
  pancreatic cancer cell viability: reduced pancreatic cancer cell viability

## O=S(=O)(c1ccccc1)N(CC(F)(F)F)c1ccc(C(O)(C(F)(F)F)C(F)(F)F)cc1 [Compound T0901317]
[2]
  circulating and liver triglyceride levels: increased circulating and liver triglyceride levels

## COc1cc(OC)cc(C(=O)N2CCN(c3ccccc3Br)CC2)c1 [KD-01-39]
[3]
  expression of LXR target genes: decreased the expression of LXR target genes
HPNE cells
  effect on non-cancerous pancreatic HPNE cells: minimal effect
KPC tumor cells
  growth of KPC tumor cells: inhibition of pancreatic cancer cells
PDAC cells [4]
  efficacy against cancer lines compared with 3A4: same or similar efficacy as 3A4
[5]; co-activator (D22) peptide
  co-activator peptide binding to LXR ligand-binding domain: did not affect recruitment of co-activator peptides
[5]; co-repressor (NCOR and SMRT-ID2) peptides
  binding of NCOR and SMRT co-repressor peptides: enhanced recruitment of NCOR and SMRT co-repressor peptides in a dosage dependent manner
LXR-LBD
  LXR-LBD structure and dye dissociation with increasing temperature: disrupted the LBD structure

## C[C@H](CCOc1cccc(CC(=O)O)c1)N(Cc1cccc(C(F)(F)F)c1Cl)CC(c1ccccc1)c1ccccc1 [RGX-104]
[6]
  anti-tumor effects of PD-1 inhibitor immunotherapy: enhanced the anti-tumor effects of PD-1 inhibitor immunotherapy
  recruitment and apoptosis of immunosuppressive MDSCs: blocked the recruitment and increased apoptosis

## Cc1cc(C)c(S(=O)(=O)N(CCc2cccc(Br)c2)Cc2ccc(-c3cccc(S(C)(=O)=O)c3)cc2)c(C)c1 [SR9243]
MDSC and CD8+ T-cells
  MDSC recruitment to tumors: decreased MDSC recruitment to tumors
  expansion and recruitment of tumor-killing CD8+ T-cells: increased the expansion and recruitment

## Nc1ccn([C@@H]2O[C@H](CO)[C@@H](O)C2(F)F)c(=O)n1 [gemcitabine]
PDAC
  improvement of median survival: approximately two weeks
